Assay results as given in patent US7652015B2, “Kinase inhibitors” (Eli Lilly and Company, priority 2006, dated 2010).

Key:
TNFα = assay: Inhibition of TNFα in vitro, LPS/interferon-γ treated mouse peritoneal macrophages, Luminex; type: cell-based; settings: Peritoneal macrophage, 50 ng/mL LPS and 10 U/mL interferon-γ, 18 hours, read-out: IC50, suppression of TNFα in vitro
Protocol: 1 mL thioglycolate broth (5.0 g yeast extract, 15.0 g casitone or trypticase, 5.0 g dextrose, 2.5 g sodium chloride, 0.75 g L-cystine, 0.5 g sodium thioglycolate, 1.0 mg resazurin, and 0.75 g agar in 1.0 L distilled water) are injected into the peritoneal cavity of Balb/C female mice. At day 4 or 5 post-injection the mice are sacrificed and then injected i.p. with 4 mL RPMI-1640 medium (BioWhittaker) and the peritoneal macrophages are withdrawn by syringe.
Mouse peritoneal macrophages are counted with a hemocytometer and adjusted to 5×10^5 cells/well in 96-well plates in RPMI-1640 medium with 10% fetal bovine serum. 200 μL/well is plated in 96-well plates and the cells allowed to settle and adhere to the bottom of the well for at least 3 hours. The test compound or standard p38 kinase inhibitor is pre-treated using a series of 8 concentrations for 1 hour at 37° C. […]
50 μL of cytokine detection antibody is added and incubated for 60 seconds at room temperature on a shaker protected from light at setting 6 and then for 30 minutes at setting 3.3 washes are performed with the Bio-Plex Wash Buffer. […] Standards and samples are read on a Luminex machine. These intensity readings are then converted to picogram/milliliter units based on a 12-point standard curve created in duplicate using a four-parameter logistic regression method (Bio-Plex Manager 2.0, Bio-Rad), and the IC50 calculated. […]

[1] = system: collagen induced arthritis; assay: Rat collagen induced arthritis efficacy model; type: in vivo; settings: female Lewis rats, PO, bid for 14 days
Protocol: Female Lewis rats (≈190 g, Charles River Labs) are immunized with Bovine type II collagen (2 mg/mL) emulsified with an equal volume of adjuvant (aluminum hydroxide). are used. The rats are immunized with approximately […] of the emulsion intradermally on the back near the base of the tail. All animals are re-immunized 7 days later according to the same protocol. The rats begin to develop arthritis (characterized by swelling and redness of one or both ankles) from 12 to 14 days after the first immunization. The rats are equally distributed into five treatment groups at the first signs of arthritis and treatment is initiated with each rat dosed bid for 14 days.
Group 1 Vehicle (1% NaCarboxymethylcellulose+0.25% Tween 80) 1 mL, PO,
• Bid×14 days • Group 2 Test compound, 5 mg/kg, 1 mL, PO, Bid×14 • Group 3 Test compound, 15 mg/kg, 1 mL, PO, Bid×14 • Group 4 Test compound, 30 mg/kg, 1 mL, PO, Bid×14 • Group 5 Prednisolone 10 mg/kg, 1 mL, PO, qd×14 Ankle diameter is measured with calipers 5 days a week and recorded. Data is expressed as the area under the curve (AUC) generated from the composite inflammation scores and statistical analysis performed.

For `CS(=O)(=O)O.Cc1ccc(-n2nc(C(C)(C)C)cc2NC(=O)Nc2ccc(N3CCN(C(=O)c4c(F)cccc4F)CC3)nc2C)cc1` [Example 5, 1-(5-tert-Butyl-2-p-tolyl-2H-pyrazol-3-yl)-3-{6-[4-(2,6-difluoro-benzoyl)-piperazin-1-yl]-2-methyl-pyridin-3-yl}-urea methanesulfonate], the IC50 (TNFα) was 18 nM and the “histology TMED 50” value [1] was 5 mg/kg bid.
